For 1 compound, melting point results are on record in patent US20010053776A1, “Tricyclic pyridin-2-one analogue as a GABA receptor ligand” (priority 2000, published 2001).

A word on the melting point: it is the temperature, or range, at which the solid turns liquid. Consider `Cc1csc(-c2cc(-c3ccncc3)c3n(c2=O)CCCc2ccncc2-3)n1` [Example 1, 9-(4-Methylthiazol-2-yl)-11-(pyridin-4-yl)-6,7-dihydro-5H-2,7a-diazadibenzo[a,c]cyclohepten-8-one], for which the melting point was 300 to 302 °C.
